Test results: patent US20030135023A1, “Peptide structures useful for competitive modulation of dipeptidyl peptidase IV catalysis” (priority 2001, published 2003)
Several values for one entry are separate records, joined by “and”; a condition that tells them apart may be missing. Identical values can stand only once. Square brackets hold non-standard residues; d marks the D form. Peptide text beside a SMILES is read from it. Tle = CC(C)(C)[C@H](N)C(=O)O

Target: T1, plasma DP IV (Rattus norvegicus, UniProt P14740)
T1 construct: The assay mixture consisted of 80 μl reagent and 20 μl plasma; from tissue; host or cells: plasma of Wistar rats
T1 sequence (P14740 37-767 limits assumed): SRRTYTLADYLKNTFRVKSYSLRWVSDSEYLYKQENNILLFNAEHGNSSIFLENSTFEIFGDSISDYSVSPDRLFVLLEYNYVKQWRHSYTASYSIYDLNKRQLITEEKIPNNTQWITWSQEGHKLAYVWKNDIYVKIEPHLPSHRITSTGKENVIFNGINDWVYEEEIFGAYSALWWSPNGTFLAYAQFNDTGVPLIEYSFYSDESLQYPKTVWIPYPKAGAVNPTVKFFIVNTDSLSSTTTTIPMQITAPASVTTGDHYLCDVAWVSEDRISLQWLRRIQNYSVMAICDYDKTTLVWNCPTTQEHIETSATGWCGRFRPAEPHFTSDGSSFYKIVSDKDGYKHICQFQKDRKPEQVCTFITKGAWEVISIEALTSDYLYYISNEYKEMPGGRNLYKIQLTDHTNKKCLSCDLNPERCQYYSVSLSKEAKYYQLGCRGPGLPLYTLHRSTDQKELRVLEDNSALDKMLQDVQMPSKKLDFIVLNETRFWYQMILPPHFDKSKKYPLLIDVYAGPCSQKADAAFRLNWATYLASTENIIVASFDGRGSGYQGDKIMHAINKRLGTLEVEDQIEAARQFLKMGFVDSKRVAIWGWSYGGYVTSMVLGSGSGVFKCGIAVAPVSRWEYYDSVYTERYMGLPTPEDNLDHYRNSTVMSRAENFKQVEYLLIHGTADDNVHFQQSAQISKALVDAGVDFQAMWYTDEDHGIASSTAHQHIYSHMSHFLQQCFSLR
Assay: Plasma DP IV activity after intravasal and oral administration in Wistar rats
Format: in vivo
Procedure: Rats with intact catheter function were given the test substances intravasal (intraarterial) or oral, respectively, in random order (N=3 Wistar rats in each group). As positive control, […]. isoleucine thiazolidine*fumarate were administered intravasal.
After overnight fasting, 100 μl samples of heparinized arterial blood were collected at −30, −5, and 0 min into ice-cooled Eppendorf tubes (see below). The test substances were dissolved freshly in 1.0 ml saline (0.154 mol/l) and were given at 0 min either oral via a feeding tube ([…], 75 mm; Fine Science Tools, Heidelberg, Germany) or intravasal. For the intravasal route, the catheter was immediately flushed with 30 μl saline and an additional 1 ml of saline was given orally via the feeding tube.
Arterial blood samples were taken thereafter at 5, 10 (only in a limited number of experiments), 20, 40, 60 and 120 min from the carotid catheter of the conscious unrestrained rats and were always given into ice cooled Eppendorf tubes (Eppendorf-Netheler-Hinz, Hamburg, Germany) filled with 10 μl 1 M citrate buffer pH 3.0 for prevention of further hydrolysis of tripeptides by plasma DP IV activity. Eppendorf tubes were centrifuged immediately (12000 rpm for 2 min, Hettich Zentrifuge EBA 12, Tuttlingen; Germany): The plasma fractions were store on ice until analysis or were deeply frozen at −20 ° C. until analysis.
Plasma DP IV activity: The assay mixture consisted of 80 μl reagent and 20 μl plasma. Kinetic measurements of the formation of the yellow product 4-nitroaniline were performed at 390 nm for 1 min at 30° C. after 2 min pre-incubation at the same temperature. The activity was expressed as arbitrary units [AU] and DP IV activity [mU/ml].
The absolute values of plasma DP IV activity, the relative change of plasma DP IV activity and the time and extent of maximal inhibition were calculated. Data presentation included the presentation of area under the curve (AUC), which was used for evaluation of extent of inhibition of plasma DP IV activity during the two hours of observation. AUC was calculated using the trapezoidal rule.
To compare relative changes of parameters under the conditions of different initial values of DP IV activity an uniform standardised mean (values) was set up at the beginning of the test (see Figures and Tables).
Statistical evaluations were performed with Microsoft Excel® 97. All variables are presented as mean and standard deviation (SD). Treatment groups were compared by Student's t-test, within-group changes by paired t-test. Two-tailed values of p<0.05 were considered significant.

[1] = iv (intravasal) 100 mg/kg b.w., Mean
[2] = iv (intravasal) 100 mg/kg b.w., individual animals, 100 mg/kg

How did the “DP IV-AUC0-120 min” value (intra-vasal 100 mg/kg b.w.) turn out when `CC[C@H](C)[C@H](NC(=O)[C@@H]1CCCN1C(=O)[C@@H](N)C(C)(C)C)C(=O)O` [t-butyl-Gly-Pro-Ile] (H-[Tle]-Pro-Ile-OH; N-terminus and C-terminus assumed) was run?
The value was −617±234 mU·min·ml^−1.

And the “plasma DP IV at 5 min” value (intravasal 100 mg/kg b.w., p<0.05)?
Its value is “below 10 mU/ml”.

And the “Plasma DP IV activity” value (iv (intravasal) 100 mg/kg b.w., 2.5 min, Mean)?
Its value is 19.01 mU/ml.

What about the “Plasma DP IV activity” value (iv (intravasal) 100 mg/kg b.w., 2.5 min, Standardized Mean) of the same compound?
The value was 15.18 mU/ml.

What about the “Plasma DP IV activity” value (iv (intravasal) 100 mg/kg b.w., 2.5 min, individual animals, 100 mg/kg) of the same compound?
The value was 15.35 mU/ml and 27.63 mU/ml and 14.04 mU/ml.

And the “Plasma DP IV activity” value (iv (intravasal) 100 mg/kg b.w., 5 min, Mean)?
The value was 18.86 mU/ml.

What about the “Plasma DP IV activity” value (iv (intravasal) 100 mg/kg b.w., 5 min, Standardized Mean) of the same compound?
Its value is 15.03 mU/ml.

And the “Plasma DP IV activity” value (iv (intravasal) 100 mg/kg b.w., 5 min, individual animals, 100 mg/kg)?
The value was 15.35 mU/ml and 25.00 mU/ml and 16.23 mU/ml.

What about the “Plasma DP IV activity” value (iv (intravasal) 100 mg/kg b.w., 7.5 min, Mean) of the same compound?
The value was 21.05 mU/ml.

And the “Plasma DP IV activity” value (iv (intravasal) 100 mg/kg b.w., 7.5 min, Standardized Mean)?
The value was 17.22 mU/ml.

And the “Plasma DP IV activity” value (iv (intravasal) 100 mg/kg b.w., 7.5 min, individual animals, 100 mg/kg)?
Its value is 17.11 mU/ml and 27.63 mU/ml and 18.42 mU/ml.

What about the “Plasma DP IV activity” value (iv (intravasal) 100 mg/kg b.w., 10 min, Mean) of the same compound?
The value was 17.25 mU/ml.

What about the “Plasma DP IV activity” value (iv (intravasal) 100 mg/kg b.w., 10 min, Standardized Mean) of the same compound?
Its value is 13.42 mU/ml.

And the “Plasma DP IV activity” value (iv (intravasal) 100 mg/kg b.w., 10 min, individual animals, 100 mg/kg)?
Its value is 17.11 mU/ml and 20.18 mU/ml and 14.47 mU/ml.

And the “Plasma DP IV activity” value (iv (intravasal) 100 mg/kg b.w., 15 min, Mean)?
The value was 15.50 mU/ml.

What about the “Plasma DP IV activity” value (iv (intravasal) 100 mg/kg b.w., 15 min, Standardized Mean) of the same compound?
Its value is 11.67 mU/ml.

What about the “Plasma DP IV activity” value (iv (intravasal) 100 mg/kg b.w., 15 min, individual animals, 100 mg/kg) of the same compound?
The value was 14.47 mU/ml and 18.42 mU/ml and 13.60 mU/ml.

And the “Plasma DP IV activity” value (iv (intravasal) 100 mg/kg b.w., 20 min, Mean)?
Its value is 18.71 mU/ml.

What about the “Plasma DP IV activity” value (iv (intravasal) 100 mg/kg b.w., 20 min, Standardized Mean) of the same compound?
The value was 14.88 mU/ml.

What about the “Plasma DP IV activity” value (iv (intravasal) 100 mg/kg b.w., 20 min, individual animals, 100 mg/kg) of the same compound?
The value was 15.35 mU/ml (2×) and 25.44 mU/ml.

And the “Plasma DP IV activity” value (iv (intravasal) 100 mg/kg b.w., 40 min, Mean)?
The value was 17.98 mU/ml.

What about the “Plasma DP IV activity” value (iv (intravasal) 100 mg/kg b.w., 40 min, Standardized Mean) of the same compound?
The value was 14.15 mU/ml.

What about the “Plasma DP IV activity” value (iv (intravasal) 100 mg/kg b.w., 40 min, individual animals, 100 mg/kg) of the same compound?
The value was 14.91 mU/ml and 23.68 mU/ml and 15.35 mU/ml.

And the “Plasma DP IV activity” value (iv (intravasal) 100 mg/kg b.w., 60 min, Mean)?
Its value is 17.25 mU/ml.

And the “Plasma DP IV activity” value (iv (intravasal) 100 mg/kg b.w., 60 min, Standardized Mean)?
Its value is 13.42 mU/ml.

And the “Plasma DP IV activity” value (iv (intravasal) 100 mg/kg b.w., 60 min, individual animals, 100 mg/kg)?
Its value is 15.79 mU/ml and 22.37 mU/ml and 13.60 mU/ml.

What about the “Plasma DP IV activity” value (iv (intravasal) 100 mg/kg b.w., 120 min, Mean) of the same compound?
Its value is 19.44 mU/ml.

And the “Plasma DP IV activity” value (iv (intravasal) 100 mg/kg b.w., 120 min, Standardized Mean)?
The value was 15.61 mU/ml.

What about the “Plasma DP IV activity” value (iv (intravasal) 100 mg/kg b.w., 120 min, individual animals, 100 mg/kg) of the same compound?
The value was 17.11 mU/ml and 25.88 mU/ml and 15.35 mU/ml.

What about the “DP IV-AUC” value [1] of the same compound?
The value was −673.4 AU · min.

And the “Drop of plasma DP IV activity” value [1]?
The value was 5.19 mU/ml.

What about the “DP IV-AUC” value [2] of the same compound?
The value was −452.9 AU · min and −1179.3 AU · min and −388.2 AU · min.

What about the “Drop of plasma DP IV activity” value [2] of the same compound?
The value was 5.70 mU/ml and 6.58 mU/ml and 3.29 mU/ml.

And the “time period over which plasma DP IV decreased slowly” value (oral 100 mg/kg b.w.)?
The value was 40 min.

And the “Plasma DP IV activity” value (oral 100 mg/kg b.w., 2.5 min, Mean)?
Its value is 17.25 mU/ml.
